Several values for one entry are separate records, joined by “and”; a condition that tells them apart may be missing. Equal entries are not always repeated. Inconclusive results and toxic doses are left out.
Test system: P388 leukemia ip, CD2F1 mice, survival T/C
Experiment: NCI In Vivo Anticancer Drug Screen. Data for tumor model P388 Leukemia (intraperitoneal) in CD2F1 (CDF1) mice
Settings: endpoint: median survival time, higher = longer survival
Procedure, shortened: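 Mice carrying the transplanted tumor received test compound or vehicle. Survival was recorded in each group, and the value is the treated-group measurement divided by that of the vehicle-treated control group.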

[1] = dose: 50.0 mg/kg/injection, schedule: Q01DX009 (ip), vehicle: Klucel (hydroxypropylcellulose) (HPC)
[2] = dose: 100.0 mg/kg/injection, schedule: Q01DX009 (ip), vehicle: Klucel (hydroxypropylcellulose) (HPC)
[3] = dose: 200.0 mg/kg/injection, schedule: Q01DX009 (ip), vehicle: Klucel (hydroxypropylcellulose) (HPC)
[4] = dose: 50.0 mg/kg/injection, schedule: Q01DX005 (ip), vehicle: Klucel (hydroxypropylcellulose) (HPC)
[5] = dose: 100.0 mg/kg/injection, schedule: Q01DX005 (ip), vehicle: Klucel (hydroxypropylcellulose) (HPC)
[6] = dose: 200.0 mg/kg/injection, schedule: Q01DX005 (ip), vehicle: Klucel (hydroxypropylcellulose) (HPC)
[7] = dose: 100.0 mg/kg/injection, schedule: Q01DX009 (ip), vehicle: saline with Tween-80
[8] = dose: 60.0 mg/kg/injection, schedule: Q01DX005 (ip), vehicle: saline with Tween-80
[9] = dose: 120.0 mg/kg/injection, schedule: Q01DX005 (ip), vehicle: saline with Tween-80
[10] = dose: 12.5 mg/kg/injection, schedule: Q01DX009 (ip), vehicle: saline
[11] = dose: 25.0 mg/kg/injection, schedule: Q01DX009 (ip), vehicle: saline
[12] = dose: 50.0 mg/kg/injection, schedule: Q01DX009 (ip), vehicle: saline

Cc1cc(NC(=O)CSCC(=O)O)no1
T/C (dose: 60.0 mg/kg/injection, schedule: Q01DX005 (ip), vehicle: Klucel (hydroxypropylcellulose) (HPC)): 98 % of control | T/C (dose: 120.0 mg/kg/injection, schedule: Q01DX005 (ip), vehicle: Klucel (hydroxypropylcellulose) (HPC)): 101 % of control | T/C (dose: 240.0 mg/kg/injection, schedule: Q01DX005 (ip), vehicle: Klucel (hydroxypropylcellulose) (HPC)): 94 % of control

O=C(O)c1cc2ccc3cccc4ccc(c1)c2c34
T/C (dose: 50.0 mg/kg/injection, schedule: Q01DX005 (ip), vehicle: saline with Tween-80): 96 % of control | T/C (dose: 100.0 mg/kg/injection, schedule: Q01DX005 (ip), vehicle: saline with Tween-80): 102 % of control

C=C/C(=C/CC(=O)O[C@@H]1CCC(C)(C)C(C=O)=C1C)Sc1ccccc1
T/C (dose: 50.0 mg/kg/injection, schedule: Q01DX001 (ip), vehicle: DMSO): 92 % of control | T/C (dose: 100.0 mg/kg/injection, schedule: Q01DX001 (ip), vehicle: DMSO): 92 % of control | T/C (dose: 200.0 mg/kg/injection, schedule: Q01DX001 (ip), vehicle: DMSO): 92 % of control

Clc1ccc(N2C=Nc3ccc(Cl)cc3C2)cc1
T/C [1]: 100 % of control | T/C [2]: 97 % of control | T/C [3]: 98 % of control

COC(=O)[C@@]12OC[C@]34[C@H]([C@@H](O)[C@@H]1O)[C@@]1(C)CC(=O)C(O)=C(C)[C@@H]1C[C@H]3OC(=O)[C@H](OC(=O)/C=C(\C)C(C)C)[C@@H]24
T/C (dose: 0.03 mg/kg/injection, schedule: Q01DX009 (ip), vehicle: saline + alcohol): 108 % of control | T/C (dose: 0.06 mg/kg/injection, schedule: Q01DX009 (sc), vehicle: saline + alcohol): 107 % of control | T/C (dose: 0.06 mg/kg/injection, schedule: Q03HX024 (ip), vehicle: saline + alcohol): 152 % of control | T/C (dose: 0.13 mg/kg/injection, schedule: Q01DX009 (ip), vehicle: saline with Tween-80): 160 % of control | T/C (dose: 0.13 mg/kg/injection, schedule: Q01DX009 (sc), vehicle: saline + alcohol): 108 % of control | T/C (dose: 0.13 mg/kg/injection, schedule: Q03HX024 (ip), vehicle: saline + alcohol): 151 % of control | T/C (dose: 0.25 mg/kg/injection, schedule: Q01DX009 (ip), vehicle: distilled water + Tween-80): 155 % of control and 177 % of control | T/C (dose: 0.25 mg/kg/injection, schedule: Q01DX009 (ip), vehicle: saline with Tween-80): 156 % of control | T/C (dose: 0.25 mg/kg/injection, schedule: Q01DX009 (sc), vehicle: saline + alcohol): 106 % of control | T/C (dose: 0.25 mg/kg/injection, schedule: Q03HX024 (ip), vehicle: saline + alcohol): 164 % of control | T/C (dose: 0.38 mg/kg/injection, schedule: Q01DX009 (ip), vehicle: saline + Tween-80 + alcohol): 155 % of control | T/C (dose: 0.5 mg/kg/injection, schedule: Q01DX009 (ip), vehicle: distilled water + Tween-80): 155 % of control and 185 % of control | T/C (dose: 0.5 mg/kg/injection, schedule: Q01DX009 (ip), vehicle: saline with Tween-80): 169 % of control | T/C (dose: 0.5 mg/kg/injection, schedule: Q01DX009 (oral), vehicle: saline + alcohol): 102 % of control | T/C (dose: 0.5 mg/kg/injection, schedule: Q01DX009 (sc), vehicle: saline + alcohol): 110 % of control | T/C (dose: 0.5 mg/kg/injection, schedule: Q08DX002 (ip), vehicle: saline + alcohol): 101 % of control | T/C (dose: 1.0 mg/kg/injection, schedule: Q01DX001 (ip), vehicle: saline + alcohol): 111 % of control | T/C (dose: 1.0 mg/kg/injection, schedule: Q01DX001 (sc), vehicle: saline + alcohol): 109 % of control | T/C (dose: 1.0 mg/kg/injection, schedule: Q01DX005 (ip), vehicle: water): 155 % of control | T/C (dose: 1.0 mg/kg/injection, schedule: Q01DX009 (ip), vehicle: distilled water + Tween-80): 158 % of control and 166 % of control | T/C (dose: 1.0 mg/kg/injection, schedule: Q01DX009 (ip), vehicle: saline with Tween-80): 185 % of control | T/C (dose: 1.0 mg/kg/injection, schedule: Q01DX009 (oral), vehicle: saline + alcohol): 104 % of control | T/C (dose: 1.0 mg/kg/injection, schedule: Q08DX002 (ip), vehicle: saline + alcohol): 100 % of control | T/C (dose: 2.0 mg/kg/injection, schedule: Q01DX001 (ip), vehicle: saline + alcohol): 116 % of control | T/C (dose: 2.0 mg/kg/injection, schedule: Q01DX001 (sc), vehicle: saline + alcohol): 115 % of control | T/C (dose: 2.0 mg/kg/injection, schedule: Q01DX009 (ip), vehicle: saline with Tween-80): 209 % of control | T/C (dose: 2.0 mg/kg/injection, schedule: Q01DX009 (oral), vehicle: saline + alcohol): 104 % of control | T/C (dose: 2.0 mg/kg/injection, schedule: Q08DX002 (ip), vehicle: saline + alcohol): 102 % of control | T/C (dose: 4.0 mg/kg/injection, schedule: Q01DX001 (ip), vehicle: saline + alcohol): 120 % of control | T/C (dose: 4.0 mg/kg/injection, schedule: Q01DX001 (oral), vehicle: saline + alcohol): 106 % of control | T/C (dose: 125.0 micrograms/kg/injection, schedule: Q01DX009 (ip), vehicle: saline + alcohol): 124 % of control | T/C (dose: 250.0 micrograms/kg/injection, schedule: Q01DX009 (ip), vehicle: saline + alcohol): 155 % of control | T/C (dose: 500.0 micrograms/kg/injection, schedule: Q01DX009 (ip), vehicle: saline + alcohol): 171 % of control | T/C (dose: 1000.0 micrograms/kg/injection, schedule: Q01DX009 (ip), vehicle: saline + alcohol): 160 % of control and 197 % of control | T/C (dose: 2000.0 micrograms/kg/injection, schedule: Q01DX009 (ip), vehicle: saline + alcohol): 152 % of control

COc1ccc(NC(=O)Nc2nc3c(C)cccc3s2)cc1
T/C [4]: 101 % of control | T/C [5]: 98 % of control | T/C [6]: 93 % of control

CSc1ccccc1[As](c1ccccc1)c1ccccc1
T/C [1]: 95 % of control | T/C [2]: 91 % of control | T/C [3]: 97 % of control

COc1ccc2c(C)cc(OC)nc2c1
T/C (dose: 50.0 mg/kg/injection, schedule: Q01DX009 (ip), vehicle: saline with Tween-80): 94 % of control | T/C [7]: 91 % of control | T/C (dose: 200.0 mg/kg/injection, schedule: Q01DX009 (ip), vehicle: saline with Tween-80): 97 % of control

CN1CC[S][Sn]([CH2][Sn]2([c]3ccccc3)[S]CCN(C)CC[S]2)([c]2ccccc2)[S]CC1
T/C [4]: 99 % of control | T/C [5]: 101 % of control | T/C [6]: 100 % of control

CCOC(=O)Nc1cc2c(c(N)n1)N=C(c1ccc(Cl)cc1Cl)CN2
T/C (dose: 12.5 mg/kg/injection, schedule: Q01DX005 (ip), vehicle: saline with Tween-80): 157 % of control | T/C (dose: 25.0 mg/kg/injection, schedule: Q01DX005 (ip), vehicle: saline with Tween-80): 90 % of control

Nc1ccccc1C(=O)Nc1ccccc1
T/C [7]: 88 % of control

O=C(OCCS(=O)(=O)CCOC(=O)ON1C(=O)CCC1=O)ON1C(=O)CCC1=O
T/C [4]: 109 % of control | T/C [5]: 109 % of control | T/C [6]: 115 % of control

COC(=O)C(=O)c1c(C(=O)OC)nc2nnc(N)n2c1-c1ccc(Cl)c(Cl)c1
T/C [8]: 96 % of control | T/C [9]: 101 % of control | T/C (dose: 240.0 mg/kg/injection, schedule: Q01DX005 (ip), vehicle: saline with Tween-80): 104 % of control

O=C(C1=C(NCc2ccccc2)CCCC1)c1ccccc1
T/C [10]: 97 % of control | T/C [11]: 100 % of control | T/C [12]: 104 % of control and 109 % of control

C=CC1(C)CCC2C(=CCC3C2(C)CC(O)C(O)C3(C)COC2OC(CO)C(O)C(O)C2O)C1 (stereo not drawn)
T/C (dose: 1.5 mg/kg/injection, schedule: Q01DX009 (ip), vehicle: Klucel (hydroxypropylcellulose) (HPC)): 103 % of control | T/C (dose: 3.0 mg/kg/injection, schedule: Q01DX009 (ip), vehicle: Klucel (hydroxypropylcellulose) (HPC)): 106 % of control | T/C (dose: 6.0 mg/kg/injection, schedule: Q01DX009 (ip), vehicle: Klucel (hydroxypropylcellulose) (HPC)): 116 % of control | T/C (dose: 12.0 mg/kg/injection, schedule: Q01DX009 (ip), vehicle: Klucel (hydroxypropylcellulose) (HPC)): 108 % of control | T/C [10]: 99 % of control | T/C (dose: 24.0 mg/kg/injection, schedule: Q01DX009 (ip), vehicle: Klucel (hydroxypropylcellulose) (HPC)): 108 % of control | T/C [11]: 100 % of control | T/C [12]: 98 % of control | T/C (dose: 100.0 mg/kg/injection, schedule: Q01DX009 (ip), vehicle: saline): 93 % of control

CC(CN(C)C)Oc1ccccc1NC1=C(Cl)C(=O)C(Nc2ccccc2OC(C)CN(C)C)=C(Cl)C1=O (stereo not drawn)
T/C (dose: 10.0 mg/kg/injection, schedule: Q01DX009 (ip), vehicle: saline): 108 % of control and 115 % of control | T/C (dose: 20.0 mg/kg/injection, schedule: Q01DX009 (ip), vehicle: saline): 115 % of control and 118 % of control

Cc1nc(O)c(-c2ccc(Cl)cc2)c(=O)[nH]1
T/C [8]: 102 % of control | T/C [9]: 109 % of control

— PubChem BioAssay AID330 (DTP/NCI, 2004)
